Converted amounts (≈) assume the structure as drawn.
Tests used:
[1] = test system: HeLa (Human cervical cancer cell line); assay: In vitro cytotoxicity, Sulforhodamine B (SRB) assay; type: cell-based; conditions: for GI50: Homo sapiens, HeLa, SRB assay, concentration range 50 to 0.78 μg/mL; for cell inhibition HeLa: up to 50 µg/mL concentration, Figure 4
Protocol: To examine the safety of the synthesized compounds, the compounds 4e and 4k were evaluated for their toxicity against the HeLa human cervical cancer cell line by a Sulforhodamine B (SRB) assay using Adriamycin as a standard drug.
In vitro cytotoxicity study of the synthesized compounds 4e and 4k was performed against HeLa (Human cervical cancer cell line) by Sulforhodamine B (SRB) assay using Adriamycin as positive control. The images were captured using an Eclipse Ti-S Inverted Research Microscope (Nikon, Tokyo, Japan). Image processing software used was NIS-Elements.

[2] = test system: Swiss albino mice; assay: In vivo acute oral toxicity study and behavioral study (OECD guideline no. 425); parameters: key to Straub Tail / Pilo Erection / Convulsions / Normal Motor Activity / Stereotypy / Tremors / Sedation / Hypnosis / Muscle Spasms / Toxicity / Deaths / Eye Lacrimation / Salivation / Diarrhea / Respiration Problems: N: no; Y: yes; conditions: for Convulsions / Deaths / Diarrhea / Eye Lacrimation / Hypnosis / Muscle Spasms / Normal Motor Activity / Pilo Erection / Respiration Problems / Salivation / Sedation / Stereotypy / Straub Tail / Toxicity / Tremors: Swiss albino mice, single oral dose 100–2000 mg/kg; for lethal dose: oral, mice, body weight, no mortality up to 2000 mg/kg
Protocol: In vivo acute oral toxicity study and gross behavioral studies of the newly synthesized compounds 4e and 4k is shown in Table 5.
425 using Swiss albino mice (18–22 gm weight) quarantined at animal house at Y.B. Chavan College of Pharmacy, Aurangabad IAEC approval number CPCSEA/IAEC/P’col-52/2015-16/115. Each group consists of six mice (overnight fasted) and kept in colony cage at 25 ± 2 °C with 55% relative humidity and 12 h of light and dark cycle. A specified dose of 100, 250, 500, 750, 1000, 1500 and 2000 mg/kg body weight of mice was administered orally as a single dose. The acute toxic symptoms and the behavioral changes produced by the synthesized compounds were observed continuously for 4 h periods at 8th, 12th and 24th h on set of toxic symptoms and the gross behavioral changes were also recorded. These animals were maintained for further 10 days with observation made daily.

[3] = test system: Bacillus subtilis (NCIM-2063); assay: In vitro antibacterial activity, MIC; type: cell-based; conditions: average of three readings; for MIC: Bacillus subtilis, NCIM2063
Protocol: (§1) The newly synthesized compounds 4a–o were screened for their in vitro antibacterial activity against the three different bacterial strains. Minimum inhibitory concentration (MIC) values for antibacterial activity were determined by standard agar method using Ampicillin as standard drug. Dimethyl sulfoxide (DMSO) was used as solvent control. […] Compound 4e bearing a 2,4-difluoro group on the phenyl ring was 48 µg/mL for E. coli, 50 µg/mL for B. subtilis and 52 µg/mL for S. aureus.
(§2) All the synthesized compounds were screened for their in vitro antifungal and antibacterial activity. The antibacterial activity was evaluated against three human pathogenic bacterial strains: Escherichia coli (NCIM-2256), Bacillus subtilis (NCIM-2063) and Staphylococcus aureus (NCIM-2901). The antifungal activity was evaluated against seven human pathogenic fungal strains: Candida albicans (NCIM-3471), Candida glabrata (NCYC-388), Fusarium oxysporum (NCIM-1332), Aspergillus fumigates (NCIM-902), Aspergillus flavus (NCIM-539), Aspergillus niger (NCIM-1196) and Cryptococcus neoformans (NCIM-576), which are often encountered clinically. Miconazole was used as standard drug. Minimum inhibitory concentration (MIC) values were determined as per CLSI guidelines. Dimethyl sulfoxide (DMSO) was used as solvent control.
(§3) All the synthesized compounds 4a–o were screened for their in vitro antibacterial activity. Minimum inhibitory concentration (MIC) values were determined using method recommended by National Committee for Clinical Laboratory Standards (NCCLS). In vitro antibacterial activities of the synthesized compounds 4a–o were tested in Nutrient Broth (NB) for bacteria by the two fold serial dilution method. Seeded broth (broth containing microbial spores) was prepared in NB from 24 h old bacterial cultures on nutrient agar (Hi-media) at 37± 1 °C. The bacterial suspension was adjusted with sterile saline to a concentration of 1× 10^−4–10^−5 C.F.U. The synthesized compounds and standard drug Ampicillin were prepared by two fold serial dilutions to obtain the required concentrations of 400, 200, 100, 50, 25, 12.5, 6.25 and 3.13 μg/mL. The tubes were incubated in BOD incubators at 37± 1 °C for bacteria. The MICs were recorded by visual observations after 24 h (for bacteria) of incubation.

[4] = test system: Escherichia coli (NCIM-2256); assay: In vitro antibacterial activity, MIC; type: cell-based; conditions: average of three readings; for MIC: Escherichia coli, NCIM2256
Protocol: as §1, §2, §3

[5] = test system: Staphylococcus aureus (NCIM-2901); assay: In vitro antibacterial activity, MIC; type: cell-based; conditions: average of three readings; for MIC: Staphylococcus aureus, NCIM2901
Protocol: as §1, §2, §3

[6] = test system: Candida glabrata (NCYC-388); assay: In vitro antifungal activity, MIC, agar method (CLSI); type: cell-based; conditions: Nakaseomyces glabratus; average of three readings
Protocol: (§4) The newly synthesized 3-((dicyclohexylamino)(substituted phenyl/heteryl)methyl)-4-hydroxy-2H-chromen-2-one derivatives 4a–o were screened for their in vitro antifungal activity against different yeast and filamentous fungal pathogens. […] Dimethyl sulfoxide (DMSO) was used as solvent control.
as §2, with “Miconazole was used as standard drug.” left out
(§5) Antifungal activity was determined as per CLSI (formerly, NCCLS) guidelines. […] The medium yeast nitrogen base was dissolved in phosphate buffer pH 7 and it was autoclaved at 110 °C for 10 min. With each set a growth control without the antifungal agent and solvent control DMSO were included. The fungal strains were freshly sub cultured on to Sabouraud dextrose agar (SDA) and incubated at 25 °C for 72 h. The fungal cells were suspended in sterile distilled water and diluted to get 10^5 cells/mL. Ten μL of the standardized suspension was inoculated onto the control plates and the media incorporated with the antifungal agents. The inoculated plates were incubated at 25 °C for 48 h. The readings were taken at the end of 48 h and 72 h. The MIC was the lowest concentration of drug preventing growth of macroscopically visible colonies on drug containing plates when there was visible growth on the drug free control plates.

[7] = test system: Aspergillus fumigates (NCIM-902); assay: as above; type: cell-based; conditions: NCIM902, average of three readings
Protocol: as §4
as §2, with “Miconazole was used as standard drug.” left out
as §5

[8] = test system: Fusarium oxysporum (NCIM-1332); assay: as above; type: cell-based; conditions: NCIM1332, average of three readings
Protocol: as §4
as §2, with “Miconazole was used as standard drug.” left out
as §5

[9] = test system: Candida albicans (NCIM-3471); assay: as above; type: cell-based; conditions: NCIM3471, average of three readings
Protocol: as §4
as §2, with “Miconazole was used as standard drug.” left out
as §5

[10] = test system: Cryptococcus neoformans (NCIM-576); assay: as above; type: cell-based; conditions: NCIM576, average of three readings
Protocol: as §4
as §2, with “Miconazole was used as standard drug.” left out
as §5

[11] = test system: Aspergillus flavus (NCIM-539); assay: as above; type: cell-based; conditions: NCIM539, average of three readings
Protocol: as §4
as §2, with “Miconazole was used as standard drug.” left out
as §5

[12] = test system: Aspergillus niger (NCIM-1196); assay: as above; type: cell-based; conditions: NCIM1196, average of three readings
Protocol: as §4
as §2, with “Miconazole was used as standard drug.” left out
as §5

[13] = test system: ergosterol biosynthesis in C. albicans; assay: Ergosterol extraction and quantitation assay; type: cell-based, Candida albicans (NCIM-3471); conditions: at the MIC value (25 µg/mL), C. albicans NCIM3471
Protocol: A single Candida albicans (NCIM-3471) colony from an overnight Sabouraud dextrose agar plate culture was used to inoculate 50 mL of Sabouraud dextrose broth for control and for various concentrations of the molecules. […] The net weight of the cell pellet was determined. […] Cell suspensions were transferred to sterile borosilicate glass screw-cap tubes and were incubated in an 85 °C water bath for one hour. Following incubation, the tubes were allowed to cool. […] The heptane layer was transferred to a clean borosilicate glass screw-cap tube and stored at −20 °C. […] The absence of detectable ergosterol in extracts was indicated by a flat line.

`COc1cccc2c1C(=O)c1c(O)c3c(c(O)c1C2=O)C[C@@](O)(C(=O)CO)C[C@@H]3O[C@H]1C[C@H](N)[C@H](O)[C@H](C)O1` [Adriamycin, reference compound] showed a GI50 [1] of 0.5 µg/mL (≈ 0.92 µM).
For `O=c1oc2ccccc2c(O)c1C(c1ccc(F)cc1F)N(C1CCCCC1)C1CCCCC1` (stereo not drawn) [Compound 4e, 3-((Dicyclohexylamino)(2,4-difluorophenyl)methyl)-4-hydroxy-2H-chromen-2-one], the Convulsions [2] was “N”, the Deaths [2] was “N” and the Diarrhea [2] was “N”. For the same compound, the “Eye Lacrimation” value [2] was “N”, the Hypnosis [2] was “N” and the “Muscle Spasms” value [2] was “N”. For the same compound, the “Normal Motor Activity” value [2] was “Y”, the “Pilo Erection” value [2] was “N” and the “Respiration Problems” value [2] was “N”. The Salivation [2] was “N”, the Sedation [2] was “N” and the Stereotypy [2] was “N”. For the same compound, the “Straub Tail” value [2] was “N”, the Toxicity [2] was “N” and the Tremors [2] was “N”. For the same compound, the lethal dose [2] was “above 2000 mg/kg”, the GI50 [1] was greater than 50 µg/mL and the “cell inhibition HeLa” value [1] was “did not take place”. The MIC [3] was 50 µg/mL (≈ 107 µM), the “MIC Bacillus subtilis” value [3] was 50 µg/mL (≈ 107 µM) and the MIC [4] was 48 µg/mL (≈ 103 µM). The “MIC Escherichia coli” value [4] was 48 µg/mL (≈ 103 µM), the MIC [5] was 52 µg/mL (≈ 111 µM) and the “MIC Staphylococcus aureus” value [5] was 52 µg/mL (≈ 111 µM). The MIC [6] was 26 µg/mL (≈ 55.6 µM), the MIC [7] was 28 µg/mL (≈ 59.9 µM) and the MIC [8] was 30 µg/mL (≈ 64.2 µM). It also gave an MIC [9] of 28 µg/mL (≈ 59.9 µM), an MIC [10] of 12 µg/mL (≈ 25.7 µM) and an MIC [11] of 12 µg/mL (≈ 25.7 µM). The MIC [12] was 12 µg/mL (≈ 25.7 µM).
In the case of `COc1cc(C(c2c(O)c3ccccc3oc2=O)N(C2CCCCC2)C2CCCCC2)ccc1O` (stereo not drawn) [Compound 4k, 3-((Dicyclohexylamino)(4-hydroxy-3-methoxyphenyl)methyl)-4-hydroxy-2H-chromen-2-one], the “UV sterol profile, ergosterol peak at 281.5 nm” value [13] is reported as “almost a flat curve”, the Convulsions [2] is reported as “N” and the Deaths [2] is reported as “N”. For the same compound, the Diarrhea [2] was “N”, the “Eye Lacrimation” value [2] was “N” and the Hypnosis [2] was “N”. For the same compound, the “Muscle Spasms” value [2] was “N”, the “Normal Motor Activity” value [2] was “Y” and the “Pilo Erection” value [2] was “N”. For the same compound, the “Respiration Problems” value [2] was “N”, the Salivation [2] was “N” and the Sedation [2] was “N”. The Stereotypy [2] was “N”, the “Straub Tail” value [2] was “N” and the Toxicity [2] was “N”. For the same compound, the Tremors [2] was “N”, the lethal dose [2] was “above 2000 mg/kg” and the GI50 [1] was greater than 50 µg/mL. The “cell inhibition HeLa” value [1] was “did not take place”, the MIC [3] was 55 µg/mL (≈ 115 µM) and the MIC [4] was 55 µg/mL (≈ 115 µM). It also gave an MIC [5] of 54 µg/mL (≈ 113 µM), an MIC [6] of 30 µg/mL (≈ 62.8 µM) and an MIC [7] of 38 µg/mL (≈ 79.6 µM). For the same compound, the MIC [8] was 28 µg/mL (≈ 58.6 µM), the MIC [9] was 25 µg/mL (≈ 52.3 µM) and the MIC [10] was 15 µg/mL (≈ 31.4 µM). For the same compound, the MIC [11] was 12 µg/mL (≈ 25.1 µM) and the MIC [12] was 15 µg/mL (≈ 31.4 µM).
`O=c1oc2ccccc2c(O)c1C(c1ccco1)N(C1CCCCC1)C1CCCCC1` (stereo not drawn) [Compound 4o, 3-((Dicyclohexylamino)(furan-2-yl)methyl)-4-hydroxy-2H-chromen-2-one] showed a melting point of 148 to 150 °C, an MIC [3] of 74 µg/mL (≈ 176 µM) and an MIC [4] of 66 µg/mL (≈ 157 µM). The MIC [5] was 70 µg/mL (≈ 166 µM), the MIC [6] was 55 µg/mL (≈ 130 µM) and the MIC [7] was 65 µg/mL (≈ 154 µM). The MIC [8] was 55 µg/mL (≈ 130 µM), the MIC [9] was 56 µg/mL (≈ 133 µM) and the MIC [10] was 48 µg/mL (≈ 114 µM). It also gave an MIC [11] of 46 µg/mL (≈ 109 µM) and an MIC [12] of 49 µg/mL (≈ 116 µM).

Reference: publication PMC6152127, “Facile Synthesis of Novel Coumarin Derivatives, Antimicrobial Analysis, Enzyme Assay, Docking Study, ADMET Prediction and Toxicity Study” (Molecules : A Journal of Synthetic Chemistry and Natural …, 2017)
